Reference: patent publication US6228868A, “Oxazoline antiproliferative agents” (Abbott Laboratories, priority 1999, dated 2001)

Key:
NCI-H460 cells = experiment: 48-hour cellular proliferation assay, sulforhodamine stain (human lung large cell carcinoma, MDR negative); format: cell-based; details: for NCI-460 (% Inhibition at 10^-4 M) / inhibition at 100 µM: NCI-460 cells, 10^-4 M; for inhibition at 100 µM / IC50: Homo sapiens; for IC50: NCI-H460 cells, values in nM
Method: (§1) Compounds of this invention were tested in a 48-hour cellular proliferation assay that uses human colon adenocarcinoma, MDR positive (HCT-15) cells, and human lung large cell carcinoma, MDR negative (NCI-H460) cells, in the 96-well microtitre format described in Skehan P., et al. New Colorimetric Cytotoxicity Assay for Anticancer Drug Screening. 1990, J. Natl. Cancer Inst. 82:1107-1112, hereby incorporated by reference. Briefly, the wells of a microtitre plate were charged sequentially with cultured cells and compounds of the invention (1.0×10^-4 to 1.0×10^-11 M in 10% DMSO prepared by dissolving compounds of the invention in DMSO and adding 11 μL of the DMSO solution to 100 μL of culture medium for a final DMSO concentration of 10%). Two of the following controls were also present in each microtitre plate: a solvent (DMSO) control without drug that yielded a 0% inhibition level and a trichloroacetic acid-treated well that yielded a 100% inhibition level. The cells were grown in culture (37° C., 5% CO2 atmosphere) for 48 hours then fixed by the addition of trichloroacetic acid. The wells were stained with sulforhodamine, washed with 1% acetic acid, and treated with 0.01 M tris buffer (100 μL) to solubilize the adherent dye. The absorbance of the dye solution was measured with a Molecular Devices SpectraMax340 plate reader. Percent inhibition and Inhibitory Concentrations (IC50) values were obtained by calculating the proportional response of the experimental values to the absorbance values of the controls.

HCT-15 cells = experiment: 48-hour cellular proliferation assay, sulforhodamine stain (human colon adenocarcinoma, MDR positive); format: cell-based; details: for inhibition at 100 µM / IC50: Homo sapiens; for HCT-15 (% Inhibition at 10^-4 M) / inhibition at 100 µM: 10^-4 M
Method: as §1

Compound | inhibition at 100 µM (NCI-H460 cells) [%] | inhibition at 100 µM (HCT-15 cells) [%] | other results
2-(3-hydroxy-4-methoxyphenyl)-4-dimethyl-5-(3,4,5-trimethoxyphenyl)-Δ2,3-oxazoline [Example 13] | – | – | NCI-460 (% Inhibition at 10^-4 M) (NCI-H460 cells): 100%; HCT-15 (% Inhibition at 10^-4 M) (HCT-15 cells): 100%
COc1cc(C2CN=C(c3ccc(N(C)C)cc3)O2)cc(OC)c1OC (stereo not shown) [Example 1, 2-(4-dimethylaminophenyl)-5-(3,4,5-trimethoxyphenyl)-Δ2,3-oxazoline] | 100 | 100 | –
COc1ccc(C2=NCC(c3cc(OC)c(OC)c(OC)c3)O2)cc1O (stereo not shown) [Example 2, 2-(3-hydroxy-4-methoxyphenyl)-5-(3,4,5-trimethoxyphenyl)-Δ2,3-oxazoline] | 100 | 100 | –
COc1ccc(C2=NCC(c3cc(OC)c(OC)c(OC)c3)O2)cc1 (stereo not shown) [Example 3, 2-(4-methoxyphenyl)-5-(3,4,5-trimethoxyphenyl)-Δ2,3-oxazoline] | 100 | 100 | –
COc1cc(OC)cc(C2=NCC(c3cc(OC)c(OC)c(OC)c3)O2)c1 (stereo not shown) [Example 4, 2-(3,5-dimethoxyphenyl)-5-(3,4,5-trimethoxyphenyl)-Δ2,3-oxazoline] | 100 | 100 | –
COc1cc(C2CN=C(c3ccc4[nH]cc(C(C)=O)c4c3)O2)cc(OC)c1OC (stereo not shown) [Example 5, 2-(3-acetylindol-5-yl)-5-(3,4,5-trimethoxyphenyl)-Δ2,3-oxazoline] | – | – | NCI-460 (% Inhibition at 10^-4 M) (NCI-H460 cells): 100%; HCT-15 (% Inhibition at 10^-4 M) (HCT-15 cells): 100%
COc1cc(C2CN=C(c3ccc4c(ccn4C)c3)O2)cc(OC)c1OC (stereo not shown) [Example 6, 2-(1-methylindol-5-yl)-5-(3,4,5-trimethoxyphenyl)-Δ2,3-oxazoline] | 100 | 100 | –
COc1cc(C2CN=C(c3c[nH]c4ccccc34)O2)cc(OC)c1OC (stereo not shown) [Example 7, 2-(indol-3-yl)-5-(3,4,5-trimethoxyphenyl)-Δ2,3-oxazoline] | 100 | 100 | –
COc1cc(C2CN=C(c3cc4ccccc4[nH]3)O2)cc(OC)c1OC (stereo not shown) [Example 8, 2-(indol-2-yl)-5-(3,4,5-trimethoxyphenyl)-Δ2,3-oxazoline] | 100 | 100 | –
COCn1ccc2cc(C3=NCC(c4cc(OC)c(OC)c(OC)c4)O3)ccc21 (stereo not shown) [Example 9, 2-(1-methoxymethylindol-5-yl)-5-(3,4,5-trimethoxyphenyl)-Δ2,3-oxazoline] | 100 | 100 | –
COc1cc(C2=NCC(c3cc(OC)c(OC)c(OC)c3)O2)ccc1N (stereo not shown) [Example 10, 2-(4-amino-3-methoxyphenyl)-5-(3,4,5-trimethoxyphenyl)-Δ2,3-oxazoline] | 100 | 100 | –
COc1cc(C2CN=C(c3ccc4[nH]ccc4c3)O2)cc(OC)c1OC (stereo not shown) [Example 11, 2-(indol-5-yl)-5-(3,4,5-trimethoxyphenyl)-Δ2,3-oxazoline] | 100 | 100 | –
COc1cc(C2CN=C(c3ccc(N)c(C)c3)O2)cc(OC)c1OC (stereo not shown) [Example 12, 2-(4-amino-3-methylphenyl)-5-(3,4,5-trimethoxyphenyl)-Δ2,3-oxazoline] | 100 | 100 | –
COc1cc(C2CN=C(c3ccc4c(c3)CCCN4C)O2)cc(OC)c1OC (stereo not shown) [Example 14, 2-(N-methyl-tetrahydroquinol-6-yl)-5-(3,4,5-trimethoxyphenyl)-Δ2,3-oxazoline] | 100 | 100 | –
COc1cc(C2CN=C(C3CC3C)O2)cc(OC)c1OC (stereo not shown) [Example 15, 2-(2-methyl-cyclopropyl)-5-(3,4,5-trimethoxyphenyl)-Δ2,3-oxazoline] | 50 | 50 | –
CCOc1ccc(C2=NCC(c3cc(OC)c(OC)c(OC)c3)O2)cc1 (stereo not shown) [Example 16, 2-(4-ethoxyphenyl)-5-(3,4,5-trimethoxyphenyl)-Δ2,3-oxazoline] | 90.7 | 96.2 | –
COc1ccc(C2=NCC(c3cc(OC)c(OC)c(OC)c3)O2)cc1OC (stereo not shown) [Example 17, 2-(3,4-dimethoxyphenyl)-5-(3,4,5-trimethoxyphenyl)-Δ2,3-oxazoline] | 85.8 | 91 | –
COc1cc(C2=NCC(c3cc(OC)c(OC)c(OC)c3)O2)ccc1OCc1ccccc1 (stereo not shown) [Example 18, 2-(4-benzyloxy-3-methoxyphenyl)-5-(3,4,5-trimethoxyphenyl)-Δ2,3-oxazoline] | 92.2 | 96 | –
COc1cc(C2CN=C(c3cc(Br)cc4c3OCC4)O2)cc(OC)c1OC (stereo not shown) [Example 19, 2-(2,3-dihydro-5-bromo-7-benzofuranyl)-5-(3,4,5-trimethoxyphenyl)-Δ2,3-oxazoline] | 100 | 98.9 | –
COc1ccc(C2=NCC(c3cc(OC)c(OC)c(OC)c3)O2)cc1OC(C)=O (stereo not shown) [Example 20, 2-(3-acetoxy-4-methoxyphenyl)-5-(3,4,5-trimethoxyphenyl)-Δ2,3-oxazoline] | 100 | 91 | –
COc1cc(C2CN=C(c3ccc4c(c3)CCN4C)O2)cc(OC)c1OC (stereo not shown) [Example 21, 2-(1-methyl-2,3-dihydro-indol-5-yl)-5-(3,4,5-trimethoxyphenyl)-Δ2,3-oxazoline] | 92.4 | 100 | –
COc1cc(C2CN=C(c3ccc4cc[nH]c4c3)O2)cc(OC)c1OC (stereo not shown) [Example 27, 2-(6-indolyl)-5-(3,4,5-trimethoxyphenyl)-Δ2,3-oxazoline] | – | – | IC50 (NCI-H460 cells): 170 nM; IC50 (HCT-15 cells; values in nM): 83 nM
COc1cc(C2CN=C(c3ccc4ccn(C)c4c3)O2)cc(OC)c1OC (stereo not shown) [Example 28, 2-(1-methylindol-6-yl)-5-(3 4.5-trimethoxyphenyl)-Δ2,3-oxazoline] | – | – | IC50 (NCI-H460 cells): 390 nM; IC50 (HCT-15 cells; values in nM): 210 nM
COc1cc(C2CN=C(c3cccc4[nH]ccc34)O2)cc(OC)c1OC (stereo not shown) [Example 29, 2-(4-indolyl)-5-(3,4,5-trimethoxyphenyl)-Δ2,3-oxazoline] | – | – | IC50 (NCI-H460 cells): 60 nM; IC50 (HCT-15 cells; values in nM): 39 nM
COc1cc(C2CN=C(c3cccc4c3ccn4C)O2)cc(OC)c1OC (stereo not shown) [Example 30, 2-(1-methylindol-4-yl)-5-(3,4,5-trimethoxyphenyl)-Δ2,3-oxazoline] | – | – | IC50 (NCI-H460 cells): 28 nM; IC50 (HCT-15 cells; values in nM): 24 nM
COc1cc(C2CN=C(c3cccc4cc[nH]c34)O2)cc(OC)c1OC (stereo not shown) [Example 31, 2-(7-indolyl)-5-(3,4,5-trimethoxyphenyl)-Δ2,3-oxazoline] | – | – | IC50 (NCI-H460 cells): 470 nM; IC50 (HCT-15 cells; values in nM): 580 nM
COc1cc(C2CN=C(c3cccc4ccn(C)c34)O2)cc(OC)c1OC (stereo not shown) [Example 32, 2-(1-methylindol-7-yl)-5-(3,4,5-trimethoxyphenyl)-Δ2,3-oxazoline] | – | – | IC50 (HCT-15 cells; values given in μM): 16000 nM
COc1cc(C2CN=C(c3cn(C)c4ccccc34)O2)cc(OC)c1OC (stereo not shown) [Example 33, 2-(1-methylindol-3-yl)-5-(3,4,5-trimethoxyphenyl)-Δ2,3-oxazoline] | – | – | IC50 (NCI-H460 cells): 120 nM; IC50 (HCT-15 cells; values in nM): 32 nM
COc1cc(C2CN=C(c3cc4ccccc4n3C)O2)cc(OC)c1OC (stereo not shown) [Example 34, 2-(1-methyl-indol-2-yl)-5-(3,4,5-trimethoxyphenyl)-Δ2,3-oxazoline] | – | – | IC50 (NCI-H460 cells): 1500 nM; IC50 (HCT-15 cells; values in nM): 650 nM
COc1cc(C2CN=C(c3ccc4[nH]cc(C(=O)C(F)(F)F)c4c3)O2)cc(OC)c1OC (stereo not shown) [Example 76, 2-(3-trifluoroacetyl-5-indolyl)-5-(3,4,5-trimethoxyphenl)-Δ2,3-oxazoline] | – | – | IC50 (HCT-15 cells; values given in μM): 1300 nM
